Experimental findings from patent publication US7332476B2, “Pyridyl substituted ketolide antibiotics” (Novartis AG, priority 2003, dated 2008) are described below.

Converted amounts (≈) assume the structure as drawn.

A word on the AUC: it is the area under the concentration-time curve, a measure of exposure.

Data set [1] is described as follows: In vivo pharmacokinetic study in rats, plasma (IV and PO). Set-up: species or system Sprague-Dawley rats. Particulars: rat; for F, PO: PO = 15 mg/kg; for half-life / AUC / clearance / Vd: male, Sprague-Dawley; for half-life: 5 mg/kg, read-out: t1/2, IV Plasma (converted); for clearance / Vd: intravenous; for Vd: read-out: Vss. The method, then: Animal Models. A total of 54 male Sprague-Dawley rats, weighing 200 grams in average, were evaluated for pharmacokinetic studies of representative pyridyl substituted ketolides. Rats were under overnight food restriction and received water ad libitum. Rats were acclimated for approximately 5 days before antibiotic administration.
Antibiotic Administration. Rats were given bolus administration through (IV) and oral (PO) routes. Representative pyridyl substituted ketolides and telithromycin, for comparison, were diluted in 0.85% saline to a concentration of 15.0 mg/ml, and the resulting pH was adjusted using 1N acetic acid until the compound was in solution. Approximately 200 microliters of the compound solution was administered to the rats. The target dose for IV and PO administration was 5 mg/kg and 15 mg/kg, respectively.
Sample Collection. Plasma and whole lung samples were collected from the rats. Plasma samples were obtained from blood samples by centrifugation at 3000 RPM for 10 min. Heparin was added in the plasma as an anticoagulant. Whole lung samples were homogenized in deionized water. Samples were stored at −80° C. A total of 9 time points were collected in triplicate at 0.083, 0.25, 0.5, 1, 2, 4, 6, 8, and 24 hrs. Ketolide concentrations in plasma and lung were determined by well-established non-GLP LC-MS-MS methods. PK parameters were estimated from the raw bioanalytical data using WinNolin software (Version 4.0, Pharsight Corporation, CA). […] All representative compounds were compared to telithromycin.

Data set [2] has as its system Streptococcus pneumoniae Stpn_297-749. The experiment in a line: MIC, broth microdilution (NCCLS). The format is cell-based. More on the design: MIC, strain ID N: unit not given here. Particulars: for MIC: Table 10, Strain ID N (Table 8): Streptococcus pneumoniae Stpn_297-749. The gist of the method:
(§1)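 NCCLS broth microdilution with 2-fold serial drug dilutions (methanol stocks diluted in water); inoculum 3×10^5–7×10^5 CFU/ml in CAMHB, with 2-5% lysed horse blood for S. pneumoniae. Incubation 18-24 h at 35° C., ambient air, except S. pneumoniae (5-10% CO2). MIC is lowest concentration preventing visible growth.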

The test system of data set [3] is Streptococcus pneumoniae Stpn_49619. The experiment in a line: MIC, broth microdilution (NCCLS). The class given is cell-based. More on the design: MIC, strain ID M: unit not given beside the values. The following applies: for MIC: Table 10, Strain ID M (Table 8): Streptococcus pneumoniae Stpn_49619. The procedure, abridged:
as §1
For orientation: In broth dilution the organism is exposed to a series of concentrations in liquid medium.

The test system of data set [4] is Streptococcus pyogenes Stpy_8668. The experiment in a line: MIC, broth microdilution (NCCLS). The format is cell-based. Set-up: MIC, strain ID G: unit not given beside the values. The following applies: for MIC: Table 10, Strain ID G (Table 8): Streptococcus pyogenes Stpy_8668. The gist of the method: as §1
The subject of data set [5] is Haemophilus influenzae Hain_49247. The experiment in a line: MIC, broth microdilution (NCCLS). The format is cell-based. The following applies: unit assumed; for MIC: Table 10, Strain ID H (Table 8): Haemophilus influenzae Hain_49247.
In data set [6] the test system is Staphylococcus epidermidis Step_14990. The experiment in a line: MIC, broth microdilution (NCCLS). Particulars: in µg/mL (unit assumed); for MIC: Table 10, Strain ID C (Table 8): Staphylococcus epidermidis Step_14990. The format is cell-based. The procedure, abridged:
as §1

Data set [7] relates to Staphylococcus epidermidis Step_f50654. Kind of data set: MIC, broth microdilution (NCCLS). The following applies: in µg/mL (unit assumed); for MIC: Table 10, Strain ID D (Table 8): Staphylococcus epidermidis Step_f50654. The class given is cell-based. The gist of the method: as §1
The test system of data set [8] is S. pneumoniae Stpn_Erm 6849. The experiment in a line: MIC, broth microdilution (NCCLS). The format is cell-based, Streptococcus pneumoniae. The following applies: strain ID P; broth microdilution; in µg/mL (unit assumed). The gist of the method: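 S. pneumoniae MIC by NCCLS broth microdilution in cation-adjusted Mueller-Hinton broth with 2-5% lysed horse blood, inoculum 3×10^5–7×10^5 CFU/ml, 2-fold drug dilutions. Incubated 18-24 hours at 35° C. in 5-10% CO2; MIC is lowest concentration preventing visible growth.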

Where [9] appears, read: plasma, IV, dose IV = 5 mg/kg (Compound XIV: IV = 15).

On to `CC[C@H]1OC(=O)[C@H](C)C(=O)[C@H](C)[C@@H](O[C@@H]2O[C@H](C)C[C@H](N(C)C)[C@H]2O)[C@](C)(OC)C[C@@H](C)C(=O)[C@H](C)[C@H]2N(CCCCn3cnc(-c4cccnc4)c3)C(=O)O[C@]12C` [Telithromycin, telithromycin, reference compound], for which the “AUC, IV” value in data set [1] (IV, dose IV = 5 mg/kg (Compound XIV: IV = 15)) was determined as 2.5 µg·h/mL. Besides, the “t1/2, IV Plasma” value in data set [1] (IV, plasma) amounted to 1.0 h. The “F, PO” value in data set [1] stood at 11%. The MIC result was “=0.05” in data set [2]; “=0.05” in data set [3]; “=0.05” in data set [4]; 3.13 µg/mL (≈ 3.85 µM) in data set [5]; 0.1-0.2 in data set [6]; 0.1-0.2 in data set [7]. In addition, the “MIC, strain ID N” value in data set [2] (strain ID N, broth microdilution) is “=0.05”. Besides, in data set [3] (strain ID M, broth microdilution), the “MIC, strain ID M” value was “=0.05”. In addition, the “MIC, strain ID G” value in data set [4] (strain ID G, broth microdilution) is reported as “=0.05”. The compound also returned an MIC, strain ID H in data set [5] (strain ID H, broth microdilution) of 3.13 µg/mL (≈ 3.85 µM). In addition, the “MIC, strain ID C” value in data set [6] (strain ID C, broth microdilution) was 0.1-0.2. Also, in data set [7] (strain ID D, broth microdilution), the “MIC, strain ID D” value is recorded as 0.1-0.2. Besides, the “MIC, strain ID P” value in data set [8] is 0.2-0.78.

`CC[C@H]1OC(=O)[C@@](C)(F)C(=O)[C@H](C)[C@@H](OC2O[C@H](C)C[C@H](N(C)C)[C@H]2O)[C@@](C)(OC)C[C@@H](C)C(=O)[C@H](C)[C@H]2N(CCCCn3cnc(-c4ccc(C)nc4)c3)C(=O)O[C@]12CC` (stereo partly shown) [XIV]: the half-life in data set [1] (IV, plasma) is 138 min. The same compound gave an AUC in data set [1] (setting [9]) of 3300 ng·h/mL. Besides, the clearance in data set [1] (plasma) is 70 mL/min/kg. In data set [1] (plasma), the Vd worked out at 13 L/kg. Moreover, in data set [1], the “F, PO” value stood at 43%. The MIC result in data set [2] is “=0.05”; in data set [3] it was “=0.05”; in data set [4], “=0.05”; in data set [5], 6.25 µg/mL (≈ 7.28 µM); in data set [6], 0.2; in data set [7], 0.4.

On to `C=C[C@]12OC(=O)N(CCCCn3cnc(-c4ccc(OC)nc4)c3)[C@@H]1[C@@H](C)C(=O)[C@H](C)C[C@](C)(OC)[C@H](OC1O[C@H](C)C[C@H](N(C)C)[C@H]1O)[C@@H](C)C(=O)[C@@H](C)C(=O)O[C@@H]2CC` (stereo partly shown) [XVIII], for which the half-life in data set [1] (IV, plasma) was 102 min. The AUC in data set [1] (setting [9]) was 2600 ng·h/mL. The clearance in data set [1] (plasma) amounted to 91 mL/min/kg. In data set [1] (plasma), the Vd was determined as 11 L/kg. Besides, in data set [1], the “F, PO” value was determined as 51%. The MIC entry is “=0.05” in data set [2]; “=0.05” in data set [3]; “=0.05” in data set [4]; 6.25 µg/mL (≈ 7.32 µM) in data set [5]; 0.2 in data set [6]; 0.2 in data set [7].

On to `C=C[C@]12OC(=O)N(CCCCn3cnc(-c4ccc(C)nc4)c3)[C@@H]1[C@@H](C)C(=O)[C@H](C)C[C@](C)(OC)[C@H](OC1O[C@H](C)C[C@H](N(C)C)[C@H]1O)[C@@H](C)C(=O)[C@@H](C)C(=O)O[C@@H]2CC` (stereo partly shown) [XVI], for which, in data set [1] (IV, plasma), the half-life is 96 min. The compound further returned an AUC in data set [1] (setting [9]) of 2100 ng·h/mL. For the same compound, the clearance in data set [1] (plasma) is 115 mL/min/kg. Also, the Vd in data set [1] (plasma) was determined as 14 L/kg. Moreover, the “F, PO” value in data set [1] was 35%. Moreover, the MIC result in data set [2] is “=0.05”; in data set [3], “=0.05”; in data set [4], “=0.05”; in data set [5], 6.25 µg/mL (≈ 7.46 µM); in data set [6], 0.2; in data set [7], 0.2.
